The text below walks through data of patent publication US20260022096A1, “NOVEL SULFONAMIDES AND THEIR USE AS NEUROPROTECTIVE AND/OR NEURORESTORATIVE AGENTS” (GENECODE, priority 2022, published 2026).

The target of this assay is T1, GFRα1-RET (Homo sapiens, UniProt P56159).
T1 construct: expressed in transfected cells; host or cells: MG87 murine fibroblasts, stably transfected
T1 sequence (P56159 25-429 limits assumed): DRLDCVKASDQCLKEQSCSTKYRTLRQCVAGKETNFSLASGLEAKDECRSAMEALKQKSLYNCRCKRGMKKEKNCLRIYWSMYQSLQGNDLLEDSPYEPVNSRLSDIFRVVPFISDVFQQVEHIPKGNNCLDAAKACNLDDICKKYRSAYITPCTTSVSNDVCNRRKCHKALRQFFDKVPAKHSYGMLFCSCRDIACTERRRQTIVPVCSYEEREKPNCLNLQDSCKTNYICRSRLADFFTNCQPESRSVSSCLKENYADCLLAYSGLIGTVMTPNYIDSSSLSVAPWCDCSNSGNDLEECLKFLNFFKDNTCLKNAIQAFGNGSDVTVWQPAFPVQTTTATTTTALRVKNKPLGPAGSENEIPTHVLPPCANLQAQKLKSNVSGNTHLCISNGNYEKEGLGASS
Briefly: Elk1 reporter-gene (luciferase) assay in cells expressing GFRα1-RET. The assay is classed as cell-based. As to conditions: MG87 murine fibroblasts stably transfected with PathDetect Elk-1, GFRα1 and RET, 6 concentrations, agonist/activator activity. How it is done:
For ECso determination, a dose-response test was performed using 6 concentrations of each tested compound. Dose-response curves were fitted using the sigmoidal dose-response (variable slope) analysis in GraphPad Prism program (Graph Pad Inc) and ECso of agonist/activator activity was calculated. Dose-response experiments were all performed in duplicate, two times independently.

Turning to `COc1ccc(S(=O)(=O)N2CCC(N(C)c3ccccc3)C2)cc1N1C2CCC1CN(C(=O)c1ccc(F)cc1Cl)C2` (racemic) [compound 127, (2-chloro-4-fluoro-phenyl)-[(1S,5R)-8-[2-methoxy-5-[(3SR)-3-(N-methylanilino)pyrrolidin-1-yl]sulfonyl-phenyl]-3,8-diazabicyclo[3.2.1]octan-3-yl]methanone], the EC50 was less than 1 µM.

Consider `CCN(CC)S(=O)(=O)c1cnc(OCc2ccccc2)c(N2[C@@H]3CC[C@H]2CN(C(=O)c2ccc(F)cc2Cl)C3)c1` [compound 034, 6-benzyloxy-5-[(1S,5R)-3-(2-chloro-4-fluoro-benzoyl)-3,8-diazabicyclo[3.2.1]octan-8-yl]-N,N-diethyl-pyridine-3-sulfonamide], for which the EC50 was less than 1 µM.

Take `Cc1c(O)cc(S(=O)(=O)N2CCC(c3ccccc3)CC2)cc1N1[C@@H]2CC[C@H]1CN(C(=O)c1ccc(F)cc1Cl)C2` [compound 124, (2-chloro-4-fluoro-phenyl)-[(1S,5R)-8-[3-hydroxy-2-methyl-5-[(4-phenyl-1-piperidyl)sulfonyl]phenyl]-3,8-diazabicyclo[3.2.1]octan-3-yl]methanone]: the EC50 is less than 1 µM. `O=C(c1ccc(F)cc1Cl)N1C[C@H]2CC[C@@H](C1)N2c1cc(S(=O)(=O)N2CCC(CCc3ccccc3)CC2)ccc1O` [compound 062] registered an EC50 of less than 1 µM.

Consider `COc1ccc(S(=O)(=O)N2CCN(CCc3ccc(Cl)cc3)CC2)cc1N1[C@@H]2CC[C@H]1CN(C(=O)c1ccc(F)cc1Cl)C2` [compound 048, (2-chloro-4-fluoro-phenyl)-[(1S,5R)-8-[5-[4-[2-(4-chlorophenyl)ethyl]piperazin-1-yl]sulfonyl-2-methoxy-phenyl]-3,8-diazabicyclo[3.2.1]octan-3-yl]methanone], for which the EC50 is less than 1 µM. `CC(C)NS(=O)(=O)c1cc(Cl)c(O)c(N2[C@@H]3CC[C@H]2CN(C(=O)c2ccc(F)cc2Cl)C3)c1` [compound 100]: the EC50 was less than 1 µM. Turning to `COc1ccc(S(=O)(=O)N2CCC(=Cc3ccccc3)CC2)cc1N1[C@@H]2CC[C@H]1CN(C(=O)c1ccc(F)cc1Cl)C2` [compound 008, [(1S,5R)-8-[5-[(4-benzylidene-1-piperidyl)sulfonyl]-2-methoxy-phenyl]-3,8-diazabicyclo[3.2.1]octan-3-yl]-(2-chloro-4-fluoro-phenyl)methanone], the EC50 is less than 1 µM. `CCN(CC)S(=O)(=O)c1cnc(O)c(N2[C@@H]3CC[C@H]2CN(C(=O)c2ccc(F)cc2Cl)C3)c1` [compound 035] came in with an EC50 of 10 to 50 µM. As for `COc1ccc(S(=O)(=O)N2CCN(c3ncccn3)CC2)cc1N1[C@@H]2CC[C@H]1CN(C(=O)c1ccc(F)cc1Cl)C2` [compound 013], the EC50 is 1 to 10 µM. On to `COc1ccc(S(=O)(=O)N2CCC(c3ccccc3)CC2)cc1N1[C@@H]2CC[C@H]1CN(C(=O)c1cc(F)c(F)cc1Cl)C2` [compound 049, (2-chloro-4,5-difluoro-phenyl)-[(1S,5R)-8-[2-methoxy-5-[(4-phenyl-1-piperidyl)sulfonyl]phenyl]-3,8-diazabicyclo[3.2.1]octan-3-yl]methanone], for which the EC50 is less than 1 µM. `COC(=O)c1ccc(C2CCN(S(=O)(=O)c3ccc(OC)c(N4[C@@H]5CC[C@H]4CN(C(=O)c4ccc(F)cc4Cl)C5)c3)CC2)cc1` [compound 042, methyl 4-[1-[3-[(1S,5R)-3-(2-chloro-4-fluoro-benzoyl)-3,8-diazabicyclo[3.2.1]octan-8-yl]-4-methoxy-phenyl]sulfonyl-4-piperidyl]benzoate] yielded a 50% effective concentration (EC50) of less than 1 µM. Turning to `COc1c(Cl)cc(S(=O)(=O)NC(C)(C)C)cc1N1[C@@H]2CC[C@H]1CN(C(=O)c1ccc(F)cc1Cl)C2` [compound 114, N-tert-butyl-3-chloro-5-[(1S,5R)-3-(2-chloro-4-fluoro-benzoyl)-3,8-diazabicyclo[3.2.1]octan-8-yl]-4-methoxy-benzenesulfonamide], the EC50 is less than 1 µM.

`Cc1cc(S(=O)(=O)N2CCC(c3ccc(F)cc3)CC2)cc(N2[C@@H]3CC[C@H]2CN(C(=O)c2ccc(F)cc2Cl)C3)c1O` [compound 091, (2-chloro-4-fluoro-phenyl)-[(1S,5R)-8-[5-[[4-(4-fluorophenyl)-1-piperidyl]sulfonyl]-2-hydroxy-3-methyl-phenyl]-3,8-diazabicyclo[3.2.1]octan-3-yl]methanone] yielded an EC50 of less than 1 µM.

With `Cc1c(Cl)cc(S(=O)(=O)NC(C)(C)C)cc1N1[C@@H]2CC[C@H]1CN(C(=O)c1ccc(F)cc1Cl)C2` [compound 074, N-tert-butyl-3-chloro-5-[(1S,5R)-3-(2-chloro-4-fluoro-benzoyl)-3,8-diazabicyclo[3.2.1]octan-8-yl]-4-methyl-benzenesulfonamide], the EC50 was less than 1 µM. For `Cn1cnc(-c2ccc(S(=O)(=O)N3CCC(c4ccccc4)CC3)cc2N2[C@@H]3CC[C@H]2CN(C(=O)c2ccc(F)cc2Cl)C3)c1` [compound 082, (2-chloro-4-fluoro-phenyl)-[(1S,5R)-8-[2-(1-methylimidazol-4-yl)-5-[(4-phenyl-1-piperidyl)sulfonyl]phenyl]-3,8-diazabicyclo[3.2.1]octan-3-yl]methanone] the value was 1 to 10 µM; for `COCCOc1c(Cl)cc(S(=O)(=O)NC(C)(C)C)cc1N1[C@@H]2CC[C@H]1CN(C(=O)c1ccc(F)cc1Cl)C2` [compound 113], less than 1 µM; for `COc1ccc(S(=O)(=O)N2CCC(Cc3ccccc3)CC2)cc1N1CCN(C(=O)c2ccc(F)cc2C(F)(F)F)CC1C` (racemic) [compound 018, [4-fluoro-2-(trifluoromethyl)phenyl]-[rac-(3S)-4-[5-[(4-benzyl-1-piperidyl)sulfonyl]-2-methoxy-phenyl]-3-methyl-piperazin-1-yl]methanone], 1 to 10 µM. Consider `O=C(c1ccc(F)cc1Cl)N1C[C@H]2CC[C@@H](C1)N2c1cc(S(=O)(=O)N2CCN(CCc3ccc(Cl)cc3)CC2)cc2c1OCC2` [compound 060, (2-chloro-4-fluoro-phenyl)-[(1S,5R)-8-[5-[4-[2-(4-chlorophenyl)ethyl]piperazin-1-yl]sulfonyl-2,3-dihydrobenzofuran-7-yl]-3,8-diazabicyclo[3.2.1]octan-3-yl]methanone], for which the EC50 was less than 1 µM.

With `CC(C)(C#N)NS(=O)(=O)c1cc(Cl)c(O)c(N2[C@@H]3CC[C@H]2CN(C(=O)c2ccc(F)cc2Cl)C3)c1` [compound 103], the EC50 fell in the range of 1 to 10 µM. For the compound `CN(C(C)(C)C)S(=O)(=O)c1cc(Cl)c(O)c(N2[C@@H]3CC[C@H]2CN(C(=O)c2ccc(F)cc2Cl)C3)c1` [compound 107], the EC50 is less than 1 µM. Turning to `COc1ccc(S(=O)(=O)N2CCC(CCc3ccccc3)CC2)cc1N1[C@@H]2CC[C@H]1CN(C(=O)c1ccc(F)cc1Cl)C2` [compound 010, (2-chloro-4-fluoro-phenyl)-[(1S,5R)-8-[2-methoxy-5-[[4-(2-phenylethyl)-1-piperidyl]sulfonyl]phenyl]-3,8-diazabicyclo[3.2.1]octan-3-yl]methanone], the EC50 was less than 1 µM. As for `CN(CC1CC1)S(=O)(=O)c1cc2c(c(N3[C@@H]4CC[C@H]3CN(C(=O)c3ccc(F)cc3Cl)C4)c1)OCC2` [compound 058, 7-[(1S,5R)-3-(2-chloro-4-fluoro-benzoyl)-3,8-diazabicyclo[3.2.1]octan-8-yl]-N-(cyclopropylmethyl)-N-methyl-2,3-dihydrobenzofuran-5-sulfonamide], the figure is 1 to 10 µM.
